This note sets out measurements from patent US8143222B2, “Modular platform for targeted therapeutic delivery” (Washington University, priority 2007, dated 2012).

No end group written: not given here.

The test system of test [1] is human pancreatic cancer cell lines. Kind of test: S2-BH3 apoptosis in human pancreatic cancer cell lines. It counts as cell-based. The conditions noted are these: up to 10 μM. As to the method: (§1) Tumor Cells are seeded at a density of 0.2 to 0.5×10^6 cells per mL in 12-well plates and incubated at 37° C. for at least 24 hours (murine cancer cells) or 48 hours (Human cancer cells). After incubation, S2-fusion protein is added to the cell culture medium. The cells are then incubated for 18 hours (active caspase 3) or 24 hours (TUNEL) at 37° C. in humidified 5% CO2. Apoptosis is detected by FACS analysis after staining cells for active caspase-3 (Cell Signaling, Boston, Mass.) or with the APO-BRDU kit (Phenix Flow Systems, San Diego, Calif.). Briefly, cells are washed with PBS, treated with trypsin-EDTA to remove adhesion molecules, and washed again. After centrifugation at 1,200 rpm for 10 min, cells are fixed with 1% paraformaldehyde and washed with PBS. After centrifugation at 1,800 rpm for 10 min, cells are fixed with 90% methanol at −20° C. and washed with PBS. Each pellet is resuspended in 1:100 anti-active caspase-3 antibody (1 μg/ml caspase 3, PBS with 5% FBS) or Br-duTP with TdT, and incubated overnight at 4° C. […] Cell fluorescence signals is determined using a FACScan flow cytometer (BD Biosciences) and analyzed with CellQuest software (BD Biosciences) to measure the percentage of apoptotic cells. […]

Test [2] deals with murine pancreatic cancer cell lines. Kind of test: S2-BH3 apoptosis in murine pancreatic cancer cell lines. It counts as cell-based. The conditions noted are these: up to 10 μM. As to the method:
as §1

Test [3] deals with established murine pancreas cancers. Kind of test: systemic (intraperitoneal) S2-BH3 in mice with established pancreas cancers. The conditions noted are these: seven intraperitoneal doses over 14 days.
Protocol: The intradermal location is used to facilitate accurate tumor measurements. Tumor diameter is measured with calipers every two days in two dimensions and the data are recorded. Mice are euthanized when the tumors reach 2 cm or ulcerate. In the subcutaneous model, 100,000 Panc-02 cells are utilized.
In these experiments, we have completed the first in vivo administration of our novel therapeutic.
Test [4] has as its system murine pancreas cancer cells. Nature of the test: apoptosis screen of TAT-CTMP fusion peptides, murine cells. Type of test: cell-based. As to the method:
as §1

The test system of a further test is AsPC-1. Kind of test: Tat-CTMP with gemcitabine, % active caspase-3 by flow cytometry. Type of test: cell-based, human. To be noted: in the presence of gemcitabine (30 nM); 24 hours. As to the method: In these experiments, a combination of gemcitabine, a commonly-used chemotherapeutic drug for pancreas cancer and Tat-CTMP were tested in our in vitro model. In this study, two human pancreas adenocarcinoma cell lines (Panc-1 and AsPC-1) were treated with TAT-CTMP and TAT-CTMP in the presence and absence of gemcitabine (30 nM). […] Cells were subsequently harvested and % active caspase-3 was assessed by flow cytometry. Each experimental group represents an n=3. […] This experiment was repeated twice with multiple murine and human lines with similar results. (B and C) Antitumor effects of CTMP4 are the result of inhibition of Akt3 and its downstream effectors. […] Samples were treated for 1 hour prior to preparation of cell lysates. Immunoblots were subsequently prepared and stained with (B) anti-total AKT and phospho-AKT ([…]) and (C) anti-total GSK-3β and phospho GSK-3β.

Test [5] concerns human pancreas cancer cells. Nature of the test: apoptosis screen of TAT-CTMP fusion peptides, human cells. It counts as cell-based. As to the method:
as §1

For the next test, the system named is Akt. Nature of the test: Western blot of phospho-Akt (Ser-473) in cell lysates. Type of test: cell-based, human. To be noted: Panc-1; one hour after treatment; wortmannin 1 μM, TAT-CTMP 10 μM. As to the method:
In addition we looked at down stream effector GSK-3β using antibodies directed at GSK-3β and phospho GSK-3β.
Cells were subsequently harvested and % active caspase-3 was assessed by flow cytometry. Each experimental group represents an n=3. […] This experiment was repeated twice with multiple murine and human lines with similar results. (B and C) Antitumor effects of CTMP4 are the result of inhibition of Akt3 and its downstream effectors. […] Samples were treated for 1 hour prior to preparation of cell lysates. Immunoblots were subsequently prepared and stained with (B) anti-total AKT and phospho-AKT (Ser^473) and (C) anti-total GSK-3β and phospho GSK-3β.
(In general: In western blotting, separated proteins are transferred to a membrane and probed.)

In a further test the test system is pancreas cancer cells. Kind of test: TAT-CTMP with radiation, apoptosis. Type of test: cell-based. To be noted: cotreatment with radiation. An excerpt: CTMP binds to the C-terminal regulatory domain of Akt, inhibiting phosphorylation of Ser^473 and activation of Akt, and thereby promotes apoptosis. CTMP is highly conserved between mouse and human (85% of the residues are identical or conservative replacements) and has two functional domains, a highly structured N-terminal domain and a C-terminal thioesterase domain. Within the N-terminal domain there are four peptides that have structural elements that meet the criteria described by Maira et al (Science 294: 374-380, 2001) as mediating the interaction with Akt. In these experiments, we synthesized TAT-fusion peptides of each of these four domains and screened them for their ability to induce apoptosis in pancreas cancer cells. […] In FIG. 4, the left panel (A), presents a helical wheel diagram (Schiffer, M. and Edmundson, A. B., Biophys. J. 7, 121-135, 1967) of the active domain of CTMP. […] Furthermore, cotreatment with TAT-CTMP4 and radiation results in increased apoptosis (FIG. 4, right panel).

With `COc1ccc(C)cc1NC(=O)OC1C[C@H]2CCC[C@@H](C1)N2CCCCCCN` (some centres unmarked) [SV119], the apoptosis result in test [1] was “low, concentration-dependent level of apoptosis”; in test [2] it was “low, concentration-dependent level of apoptosis”.
For the compound “S2-BH3-in: control peptide: SW141 sigma-2 amino acid coupled to mutated inactive BH3 sequence EIWIAQEARRIGAEFNAYYAR (SEQ ID NO: 3) (also: SW141 sigma-2 ligand conjugated; listed as Homo sapiens)”, the apoptosis entry in test [1] and in test [2] was “no appreciable apoptosis” each time. Further, the tumor growth rate result in test [3] (400 μg) is listed as “not”. The “Median Survival” value in test [3] (n = 12 mice per group) is 35 days.
“TAT-CTMP: TAT-fusion peptide of the active N-terminal domain peptide CTMP4 of CTMP (YGRKKRRQRRRLDPKLMKEEQMSQAQLFTRSFDDGL)”: the apoptosis result in test [4] and in test [5] was “induced appreciable apoptosis” each time. In addition, the “apoptosis (% active caspase-3)” value with AsPC-1 is “additive increase in apoptosis”. Also, the “active phospho-AKT (Ser-473)” value in the test with Akt is recorded as “decreased active phospho-AKT”. The radiation-induced apoptosis result in the test on pancreas cancer cells is “sensitizes pancreas cancer cells to radiation-induced apoptosis in a dose dependent fashion”.
